Measurements reported in patent US10660836B2, “Hydroxy functionalized solvent based skin benefit composition” (Conopco, Inc., priority 2015, dated 2020).

Test: Transparency (no crystallization or gelation) of 12-hydroxystearic acid compositions after manufacturing, visual inspection
Format: physicochemical
Parameters: key: C: a substantially transparent or transparent composition for at least three (3) months after manufacturing; X: an opaque (non-transparent, non-translucent) composition inconsistent with the claimed compositions of this invention and where benefit agent crystallization or composition gelation is almost immediately observed
Conditions: SBA = 12-hydroxystearic acid
Description: Cosmetic composition is meant to mean a leave-on or wash-off composition, preferably leave-on, for topical application to mammals, especially humans. Such a composition can include tonics, lotions, personal washes, serums, spot correctors, compositions for facial masks or wipes, make-up removers, patches, scrubs or the like. Substantially transparent as used herein, means allowing light to pass but diffusing the light so that items on the opposite side of light entry are not clearly visible. Substantially transparent is synonymous with translucent. Transparent, as used herein, means capable of transmitting light where objects opposite the point of entry of light are seen clearly upon a visable inspection (i.e., 2.5 cm of sample placed 5 cm over an object and viewed from 25 cm away from viewer's eyes). Flowable, as used herein, means having a viscosity from 0 to 8,000 cps, and preferably, from 10 to 4,000 cps, and most preferably, from 500 to 2,000 cps, including all ranges subsumed therein (viscosity measured on a Brookfield Viscometer, 24° C., 20 RPM, Spindle RV2). Free of crystallization and gelation as used herein means remaining at least substantially transparent (preferably transparent) at ambient temperature for at least three (3) months. Use of substantially transparent, transparent and translucent herein is based on the mixture of hydroxy functionalized solvent (with or without miscible co-solvent) and 12-hydroxystearic acid. It is not to say the mixture cannot, for example, comprise an optional opacifier. Hydroxy group density (“HD”) means the molecular weight of total solvent hydroxy group/the molecular weight of the solvent where solvent hydroxy group can include the hydroxy group on a carboxylic acid group. Methanol, for example, has an HD of 0.53, 17 g/mol/32 g/mol. Regarding optional additives, they may be used according to their solubility where those that are not water soluble may be selected for use in the composition substantially free of water as described herein and those which are water soluble may be used in the aforementioned optional but separate and distinct phase. Miscible/Soluble, as used herein, means ability to mix/dissolve homogeneously at 70 to 85° C. and remain homogeneously dissolved or mixed upon cooling. Comprising, as used herein, is meant to include consisting essentially of and consisting of. For the avoidance of doubt, therefore, the composition of this invention may consist essentially of or consist of 12-hydroxystearic acid and hydroxy functionalized solvent. Anhydrous as used herein means a composition substantially free of water whereby the composition is less than 2% by weight water, and preferably, less than 1% by weight water based on total weight of the composition comprising 12-hydroxystearic acid and hydroxy functionalized solvent. Anhydrous also includes free of water (i.e., no water) within the composition comprising 12-hydroxystearic and hydroxy fuctionalized solvent. Double phase product includes a two (2) portion product that may be separately packaged or preferably a biphasic product (i.e., distinct immiscible portions). Skin benefit agent means an agent in addition to hydroxyl functionalized solvent and 12-hydroxystearic acid that provides benefit to skin. The skin benefit agent used in the anhydrous composition of the invention that comprises 12-hydroxystearic acid is preferably soluble or miscible in the same. To the extent optional water miscible/soluble actives or ingredients are used, they will preferably be provided, as later described, in a double phase product with the anhydrous composition of this invention, the double phase product having a distinct phase often being a water phase (including emulsions, solutions and dispersions), water containing concentrate or water soluble solid, particulate or powder. Water phase, as used herein, includes a composition having 2% or more water, and preferably, from 10% to 98% by weight water based on total weight of the water phase. […]

CCOCCOCCO [2-(2-Ethoxyethoxy)ethanol]
Transparency of composition (1% SBA/99% Solvent): C (a substantially transparent or transparent composition for at least three (3) months after manufacturing)
Transparency of composition (3% SBA/97% Solvent): C (a substantially transparent or transparent composition for at least three (3) months after manufacturing)
Transparency of composition (5% SBA/95% Solvent): C (a substantially transparent or transparent composition for at least three (3) months after manufacturing)
Transparency of composition (10% SBA/90% Solvent): X
Transparency of composition (15% SBA/85% Solvent): X
Transparency of composition (20% SBA/80% Solvent): X
Transparency of composition (25% SBA/75% Solvent): X

OCc1ccccc1 [Benzyl Alcohol]
Transparency of composition (1% SBA/99% Solvent): C (a substantially transparent or transparent composition for at least three (3) months after manufacturing)
Transparency of composition (3% SBA/97% Solvent): C (a substantially transparent or transparent composition for at least three (3) months after manufacturing)
Transparency of composition (5% SBA/95% Solvent): C (a substantially transparent or transparent composition for at least three (3) months after manufacturing)
Transparency of composition (10% SBA/90% Solvent): X
Transparency of composition (15% SBA/85% Solvent): X
Transparency of composition (20% SBA/80% Solvent): X
Transparency of composition (25% SBA/75% Solvent): X

OCCCCO [Butylene Glycol]
Transparency of composition (1% SBA/99% Solvent): C (a substantially transparent or transparent composition for at least three (3) months after manufacturing)
Transparency of composition (3% SBA/97% Solvent): X
Transparency of composition (5% SBA/95% Solvent): X
Transparency of composition (10% SBA/90% Solvent): X
Transparency of composition (15% SBA/85% Solvent): X
Transparency of composition (20% SBA/80% Solvent): X
Transparency of composition (25% SBA/75% Solvent): X

CCO [Ethanol]
Transparency of composition (1% SBA/99% Solvent): C (a substantially transparent or transparent composition for at least three (3) months after manufacturing)
Transparency of composition (3% SBA/97% Solvent): C (a substantially transparent or transparent composition for at least three (3) months after manufacturing)
Transparency of composition (5% SBA/95% Solvent): C (a substantially transparent or transparent composition for at least three (3) months after manufacturing)
Transparency of composition (10% SBA/90% Solvent): C (a substantially transparent or transparent composition for at least three (3) months after manufacturing)
Transparency of composition (15% SBA/85% Solvent): C (a substantially transparent or transparent composition for at least three (3) months after manufacturing)
Transparency of composition (20% SBA/80% Solvent): X
Transparency of composition (25% SBA/75% Solvent): X

CC(C)CCCCCCCCCCCCCCC(=O)O [Isostearic Acid]
Transparency of composition (1% SBA/99% Solvent): C (a substantially transparent or transparent composition for at least three (3) months after manufacturing)
Transparency of composition (3% SBA/97% Solvent): C (a substantially transparent or transparent composition for at least three (3) months after manufacturing)
Transparency of composition (5% SBA/95% Solvent): X
Transparency of composition (10% SBA/90% Solvent): X
Transparency of composition (15% SBA/85% Solvent): X
Transparency of composition (20% SBA/80% Solvent): X
Transparency of composition (25% SBA/75% Solvent): X

CC(C)CCCCCCCCCCCCCCCO [Isostearyl Alcohol]
Transparency of composition (1% SBA/99% Solvent): C (a substantially transparent or transparent composition for at least three (3) months after manufacturing)
Transparency of composition (3% SBA/97% Solvent): C (a substantially transparent or transparent composition for at least three (3) months after manufacturing)
Transparency of composition (5% SBA/95% Solvent): X
Transparency of composition (10% SBA/90% Solvent): X
Transparency of composition (15% SBA/85% Solvent): X
Transparency of composition (20% SBA/80% Solvent): X
Transparency of composition (25% SBA/75% Solvent): X

CO [Methanol]
Transparency of composition (1% SBA/99% Solvent): C (a substantially transparent or transparent composition for at least three (3) months after manufacturing)
Transparency of composition (3% SBA/97% Solvent): C (a substantially transparent or transparent composition for at least three (3) months after manufacturing)
Transparency of composition (5% SBA/95% Solvent): C (a substantially transparent or transparent composition for at least three (3) months after manufacturing)
Transparency of composition (10% SBA/90% Solvent): C (a substantially transparent or transparent composition for at least three (3) months after manufacturing)
Transparency of composition (15% SBA/85% Solvent): C (a substantially transparent or transparent composition for at least three (3) months after manufacturing)
Transparency of composition (20% SBA/80% Solvent): C (a substantially transparent or transparent composition for at least three (3) months after manufacturing)
Transparency of composition (25% SBA/75% Solvent): X

CCCCCCCCCCC(CO)CCCCCCCC (stereo not drawn) [Octyldodecanol]
Transparency of composition (1% SBA/99% Solvent): C (a substantially transparent or transparent composition for at least three (3) months after manufacturing)
Transparency of composition (3% SBA/97% Solvent): C (a substantially transparent or transparent composition for at least three (3) months after manufacturing)
Transparency of composition (5% SBA/95% Solvent): X
Transparency of composition (10% SBA/90% Solvent): X
Transparency of composition (15% SBA/85% Solvent): X
Transparency of composition (20% SBA/80% Solvent): X
Transparency of composition (25% SBA/75% Solvent): X

OCCOc1ccccc1 [Pehnoxyethanol]
Transparency of composition (1% SBA/99% Solvent): C (a substantially transparent or transparent composition for at least three (3) months after manufacturing)
Transparency of composition (3% SBA/97% Solvent): C (a substantially transparent or transparent composition for at least three (3) months after manufacturing)
Transparency of composition (5% SBA/95% Solvent): C (a substantially transparent or transparent composition for at least three (3) months after manufacturing)
Transparency of composition (10% SBA/90% Solvent): X
Transparency of composition (15% SBA/85% Solvent): X
Transparency of composition (20% SBA/80% Solvent): X
Transparency of composition (25% SBA/75% Solvent): X

CC(O)CO (stereo not drawn) [Propylene Glycol]
Transparency of composition (1% SBA/99% Solvent): C (a substantially transparent or transparent composition for at least three (3) months after manufacturing)
Transparency of composition (3% SBA/97% Solvent): X
Transparency of composition (5% SBA/95% Solvent): X
Transparency of composition (10% SBA/90% Solvent): X
Transparency of composition (15% SBA/85% Solvent): X
Transparency of composition (20% SBA/80% Solvent): X
Transparency of composition (25% SBA/75% Solvent): X

Conjugated Linoleic Acid
Transparency of composition (1% SBA/99% Solvent): C (a substantially transparent or transparent composition for at least three (3) months after manufacturing)
Transparency of composition (3% SBA/97% Solvent): C (a substantially transparent or transparent composition for at least three (3) months after manufacturing)
Transparency of composition (5% SBA/95% Solvent): X
Transparency of composition (10% SBA/90% Solvent): X
Transparency of composition (15% SBA/85% Solvent): X
Transparency of composition (20% SBA/80% Solvent): X
Transparency of composition (25% SBA/75% Solvent): X

Ethylhexyl Hydroxystearate
Transparency of composition (1% SBA/99% Solvent): C (a substantially transparent or transparent composition for at least three (3) months after manufacturing)
Transparency of composition (3% SBA/97% Solvent): X
Transparency of composition (5% SBA/95% Solvent): X
Transparency of composition (10% SBA/90% Solvent): X
Transparency of composition (15% SBA/85% Solvent): X
Transparency of composition (20% SBA/80% Solvent): X
Transparency of composition (25% SBA/75% Solvent): X
